Columns and labels:
Test in all cases: radiometric filter-binding kinase assay, Kinaseprofiler
[1] = tested on: AKT3 (human), Q9Y243 [S472D]; details: ATP 45 µM
[2] = tested on: CSNK1G3 (human), Q9Y6M4 [K91E/R174G/E302D]; details: ATP 10 µM
[3] = tested on: PHKG2 (human), P15735 [F290L]; details: ATP 10 µM
[4] = tested on: MAPKAPK5 (human), Q8IW41 [R291E]; details: ATP 15 µM
[5] = tested on: GSK3B (human), P49841 [H350L]; details: ATP 15 µM
[6] = tested on: ROS1 (human), P08922 [V2262A]; details: ATP 200 µM
Sequence of ROS1 (human), P08922 [V2262A] (P08922 whole entry, looked up, stated change not applied): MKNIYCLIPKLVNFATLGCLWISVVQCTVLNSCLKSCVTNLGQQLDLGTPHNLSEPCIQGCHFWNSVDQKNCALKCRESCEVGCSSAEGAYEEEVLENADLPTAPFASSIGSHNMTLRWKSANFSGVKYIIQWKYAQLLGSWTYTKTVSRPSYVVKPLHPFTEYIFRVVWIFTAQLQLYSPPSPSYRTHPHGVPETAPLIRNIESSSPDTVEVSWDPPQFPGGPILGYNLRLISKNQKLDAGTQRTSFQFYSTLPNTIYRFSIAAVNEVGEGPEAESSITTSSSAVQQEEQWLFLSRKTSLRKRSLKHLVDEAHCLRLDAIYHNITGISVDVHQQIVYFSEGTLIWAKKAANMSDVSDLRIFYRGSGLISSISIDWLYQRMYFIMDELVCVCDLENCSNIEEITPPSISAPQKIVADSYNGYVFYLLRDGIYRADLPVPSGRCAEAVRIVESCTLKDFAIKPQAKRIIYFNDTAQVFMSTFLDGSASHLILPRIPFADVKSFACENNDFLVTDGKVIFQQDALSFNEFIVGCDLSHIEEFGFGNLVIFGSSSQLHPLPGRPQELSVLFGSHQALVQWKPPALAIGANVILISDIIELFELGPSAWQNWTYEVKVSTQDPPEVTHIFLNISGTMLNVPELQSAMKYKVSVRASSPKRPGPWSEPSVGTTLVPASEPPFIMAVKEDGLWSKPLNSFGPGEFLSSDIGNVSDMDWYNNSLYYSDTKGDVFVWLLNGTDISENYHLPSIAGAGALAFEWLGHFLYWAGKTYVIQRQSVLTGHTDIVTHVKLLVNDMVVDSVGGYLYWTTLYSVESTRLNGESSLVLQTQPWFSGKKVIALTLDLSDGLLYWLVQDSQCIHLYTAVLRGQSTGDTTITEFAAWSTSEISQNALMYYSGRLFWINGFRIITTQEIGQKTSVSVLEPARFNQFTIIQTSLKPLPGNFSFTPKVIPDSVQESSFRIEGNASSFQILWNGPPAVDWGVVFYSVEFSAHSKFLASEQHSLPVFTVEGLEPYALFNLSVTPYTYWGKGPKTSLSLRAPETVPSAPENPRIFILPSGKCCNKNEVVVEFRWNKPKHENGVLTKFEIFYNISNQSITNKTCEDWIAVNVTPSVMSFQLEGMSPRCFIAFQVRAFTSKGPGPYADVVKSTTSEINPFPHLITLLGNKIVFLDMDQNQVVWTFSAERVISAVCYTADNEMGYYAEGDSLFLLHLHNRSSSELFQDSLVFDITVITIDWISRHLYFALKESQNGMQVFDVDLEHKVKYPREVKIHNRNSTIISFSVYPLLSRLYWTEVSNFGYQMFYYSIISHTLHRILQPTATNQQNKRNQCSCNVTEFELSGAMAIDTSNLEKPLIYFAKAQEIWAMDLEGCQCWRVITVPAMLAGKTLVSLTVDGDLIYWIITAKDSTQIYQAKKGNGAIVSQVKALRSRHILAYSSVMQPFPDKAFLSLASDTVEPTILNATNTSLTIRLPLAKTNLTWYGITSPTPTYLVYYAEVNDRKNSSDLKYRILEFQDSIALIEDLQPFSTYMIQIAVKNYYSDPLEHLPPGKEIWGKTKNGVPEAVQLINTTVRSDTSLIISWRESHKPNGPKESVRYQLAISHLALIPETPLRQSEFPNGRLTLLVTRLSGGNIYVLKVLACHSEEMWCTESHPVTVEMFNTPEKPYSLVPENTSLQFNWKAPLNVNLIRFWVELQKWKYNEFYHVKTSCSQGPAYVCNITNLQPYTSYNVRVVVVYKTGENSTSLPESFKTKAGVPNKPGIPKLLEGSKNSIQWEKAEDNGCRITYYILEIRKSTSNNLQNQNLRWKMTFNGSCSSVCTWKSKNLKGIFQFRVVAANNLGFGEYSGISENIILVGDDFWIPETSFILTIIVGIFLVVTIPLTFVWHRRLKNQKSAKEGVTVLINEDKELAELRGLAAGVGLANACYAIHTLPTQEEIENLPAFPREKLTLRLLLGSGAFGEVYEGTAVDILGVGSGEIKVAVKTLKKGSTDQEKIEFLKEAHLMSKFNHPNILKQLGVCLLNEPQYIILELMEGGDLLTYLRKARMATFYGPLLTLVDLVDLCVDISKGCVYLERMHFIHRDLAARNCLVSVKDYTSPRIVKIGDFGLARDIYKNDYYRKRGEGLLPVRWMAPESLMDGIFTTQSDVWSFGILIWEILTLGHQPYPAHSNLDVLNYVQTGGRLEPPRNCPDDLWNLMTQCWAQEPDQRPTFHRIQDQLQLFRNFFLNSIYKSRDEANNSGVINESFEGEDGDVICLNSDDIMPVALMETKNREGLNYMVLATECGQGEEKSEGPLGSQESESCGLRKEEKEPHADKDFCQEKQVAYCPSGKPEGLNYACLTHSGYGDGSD

Sequence of GSK3B (human), P49841 [H350L] (P49841 whole entry, looked up, stated change not applied): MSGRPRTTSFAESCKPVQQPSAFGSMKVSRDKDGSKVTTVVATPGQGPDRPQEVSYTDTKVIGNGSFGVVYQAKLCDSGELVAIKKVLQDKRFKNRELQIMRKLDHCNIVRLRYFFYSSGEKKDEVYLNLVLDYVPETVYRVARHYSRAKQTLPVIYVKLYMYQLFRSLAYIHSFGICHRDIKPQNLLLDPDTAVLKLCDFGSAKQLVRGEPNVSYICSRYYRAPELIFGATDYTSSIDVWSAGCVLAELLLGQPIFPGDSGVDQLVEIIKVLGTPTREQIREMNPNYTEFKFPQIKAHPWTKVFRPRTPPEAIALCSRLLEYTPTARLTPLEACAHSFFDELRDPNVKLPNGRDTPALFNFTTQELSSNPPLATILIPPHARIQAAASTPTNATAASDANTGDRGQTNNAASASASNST
Sequence of CSNK1G3 (human), Q9Y6M4 [K91E/R174G/E302D] (Q9Y6M4 whole entry, looked up, stated change not applied): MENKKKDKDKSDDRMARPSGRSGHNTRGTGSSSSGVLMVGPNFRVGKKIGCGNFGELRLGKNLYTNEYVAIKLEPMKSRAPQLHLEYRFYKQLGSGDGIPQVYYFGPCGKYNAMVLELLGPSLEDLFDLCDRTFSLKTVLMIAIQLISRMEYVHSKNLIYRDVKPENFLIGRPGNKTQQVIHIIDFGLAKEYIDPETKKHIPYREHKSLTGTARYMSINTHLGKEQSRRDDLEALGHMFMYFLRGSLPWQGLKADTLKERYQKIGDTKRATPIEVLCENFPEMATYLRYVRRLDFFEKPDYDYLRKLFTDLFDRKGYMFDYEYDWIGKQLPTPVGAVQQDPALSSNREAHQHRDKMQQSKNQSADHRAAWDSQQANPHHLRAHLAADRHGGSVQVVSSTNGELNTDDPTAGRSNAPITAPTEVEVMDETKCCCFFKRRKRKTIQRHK
Sequence of MAPKAPK5 (human), Q8IW41 [R291E] (Q8IW41 whole entry, looked up, stated change not applied): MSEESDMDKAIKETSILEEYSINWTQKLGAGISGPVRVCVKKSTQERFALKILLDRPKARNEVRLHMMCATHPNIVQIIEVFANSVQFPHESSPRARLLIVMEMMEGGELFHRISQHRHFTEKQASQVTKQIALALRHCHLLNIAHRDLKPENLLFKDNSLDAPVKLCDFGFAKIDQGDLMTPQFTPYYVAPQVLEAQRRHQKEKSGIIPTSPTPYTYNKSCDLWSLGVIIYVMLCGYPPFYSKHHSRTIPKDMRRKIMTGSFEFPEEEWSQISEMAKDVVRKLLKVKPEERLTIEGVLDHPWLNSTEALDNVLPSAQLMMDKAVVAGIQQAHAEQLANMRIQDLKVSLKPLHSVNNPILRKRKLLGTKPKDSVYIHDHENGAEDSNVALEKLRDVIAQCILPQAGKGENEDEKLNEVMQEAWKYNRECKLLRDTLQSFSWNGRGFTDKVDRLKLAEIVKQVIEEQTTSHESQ
Sequence of PHKG2 (human), P15735 [F290L] (P15735 whole entry F290L, looked up): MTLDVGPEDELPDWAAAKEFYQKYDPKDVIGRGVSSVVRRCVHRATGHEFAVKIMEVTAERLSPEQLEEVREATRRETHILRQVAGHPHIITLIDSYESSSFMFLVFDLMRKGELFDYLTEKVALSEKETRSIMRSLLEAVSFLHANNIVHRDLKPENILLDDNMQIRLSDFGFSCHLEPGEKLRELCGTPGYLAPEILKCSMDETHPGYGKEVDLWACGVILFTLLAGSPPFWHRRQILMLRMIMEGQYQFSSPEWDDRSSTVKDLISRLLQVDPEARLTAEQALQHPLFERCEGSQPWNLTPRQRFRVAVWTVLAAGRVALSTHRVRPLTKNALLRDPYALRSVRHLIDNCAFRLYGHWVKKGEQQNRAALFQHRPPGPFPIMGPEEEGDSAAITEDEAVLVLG
Sequence of AKT3 (human), Q9Y243 [S472D] (Q9Y243 whole entry S472D, looked up): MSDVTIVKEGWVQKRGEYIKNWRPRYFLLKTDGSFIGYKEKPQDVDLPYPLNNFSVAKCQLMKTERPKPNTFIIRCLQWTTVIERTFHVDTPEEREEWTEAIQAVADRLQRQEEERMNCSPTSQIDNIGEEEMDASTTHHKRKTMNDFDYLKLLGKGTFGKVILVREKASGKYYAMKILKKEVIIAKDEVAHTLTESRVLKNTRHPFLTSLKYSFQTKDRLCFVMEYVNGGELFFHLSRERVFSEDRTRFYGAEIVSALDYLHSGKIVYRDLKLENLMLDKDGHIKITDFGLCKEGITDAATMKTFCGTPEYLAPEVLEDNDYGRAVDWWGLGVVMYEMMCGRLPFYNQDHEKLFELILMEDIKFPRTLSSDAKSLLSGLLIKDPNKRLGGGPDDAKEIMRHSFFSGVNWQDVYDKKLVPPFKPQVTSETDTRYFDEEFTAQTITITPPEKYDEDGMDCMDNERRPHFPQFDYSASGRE

SMILES | residual activity ([1]; compound 10.0 µM) [%] | residual activity ([2]; compound 1.0 µM) [%] | residual activity ([2]; compound 10.0 µM) [%] | residual activity ([3]; compound 1.0 µM) [%] | residual activity ([4]; compound 10.0 µM) [%] | residual activity ([5]; compound 1.0 µM) [%] | residual activity ([5]; compound 10.0 µM) [%] | residual activity ([3]; compound 10.0 µM) [%] | residual activity ([1]; compound 1.0 µM) [%] | residual activity ([6]; compound 1.0 µM) [%] | residual activity ([6]; compound 10.0 µM) [%] | residual activity ([4]; compound 1.0 µM) [%]
CN[C@@H]1C[C@H]2O[C@@](C)([C@@H]1OC)n1c3ccccc3c3c4c(c5c6ccccc6n2c5c31)C(=O)NC4 | 0 | 95 | 52 | – | – | – | – | – | – | – | – | –
COC(=O)[C@]1(O)C[C@@H]2O[C@@]1(C)n1c3ccccc3c3c4c(c5c6ccccc6n2c5c31)C(=O)NC4 | – | – | – | 0 | 0 | – | – | – | – | – | – | –
O=C1Nc2ccccc2/C1=C1\Nc2ccccc2\C1=N/O | 64 | 63 | 20 | 25 | 24 | 10 | 1 | 12 | 95 | 105 | 88 | 78
O=C1c2ccccc2-c2n[nH]c3cccc1c23 | 66 | 83 | 31 | 77 | 14 | 74 | 58 | 15 | 89 | 93 | 85 | 59
O=C(Nc1cccc(Nc2nccc(Nc3cccc(C(F)(F)F)c3)n2)c1)C1CC1 | – | – | – | – | – | – | – | 100 | – | – | – | –
